Reference: US11685744B2, “CDK inhibitors and their use as pharmaceuticals” (Prelude Therapeutics, Incorporated, priority 2020, dated 2023)
Read-outs that look alike come from different tables or passages of the source.

Assays:
[1] = tested on: MCF7 adenocarcinoma cell line; test: Cell proliferation studies in MCF7 cells (ATP-Lite, 10 days); format: cell-based; details: read-out: PROLIFERATION_CTG_MCF7 IC50
Procedure: Cell Proliferation Studies in MCF7 Cells
Cell proliferation studies were conducted in MCF7 adenocarcinoma cell line. Cells were maintained in DMEM (Coming, Catalog #: 10-013-CV) supplemented with 10% v/v FBS (Gibco, Catalog #: 26140-079), 1% v/v Penicillin Streptomycin (Gibco, Catalog #15140-122) Cells were seeded in 384-well plates at a density of 100 or 200 cells/well. Compounds dissolved in DMSO were plated in quadruplicate using a digital dispenser (D300E, Tecan) and tested on a 9-point 3-fold serial dilution. Cells were incubated for 10 days in a 37° C. active humidified incubator at 5% CO2. A media exchange and second compound addition were performed on day 5. Cell viability was measured using the ATP-Lite 1-Step Luminescence reagent (Perkin Elmer, Catalog #: 6016731) as per manufacturer's instructions. Luminescence signal was measured with a multimode plate reader (Envision 2105, Perkin Elmer). Raw data files were imported to Dotmatics Screening Ultra for IC50 analysis. Luminescence values were normalized to both background and DMSO controls to obtain a percentage of viable cells relative to DMSO vehicle control.

CDK6/Cyclin D1 = CDK6/Cyclin D1 (Homo sapiens (Human), UniProt Q00534); test: CDK6/CyclinD1 enzymatic activity assay (TR-FRET); format: biochemical; details: ATP 250 μM, read-out: CDK6_D1 IC50
Procedure: CDK6/CyclinD1 Enzymatic Activity Assay
(§1) The inhibitory activity of compounds was evaluated in vitro using TR-FRET assay with white 384-well low volume microplate (Greiner Bio-One). CDK6/Cyclin D1 catalyzed phosphorylation of peptide in the presence and absence of compounds was measured and used in IC50 determination. Recombinant protein complex CDK6/Cyclin D1, expressed from insect cell, was purchased from ProQinase. Testing compounds were dissolved in DMSO at 0.1 mM and tested in 9-dose IC50 mode. The reaction mixture was prepared by mixing CDK6/Cyclin D1 (1 nM final), ULight-4E-BP1 (100 nM final, Perkinelmer, TRF0128-D), and ATP (250 μM final) in assay buffer (20 mM of HEPES pH 7.4, 1 mM of EGTA, 0.05% BSA, 0.005% Tween 20, and 1 mM TCEP). The compound of interest in DMSO was added to each well in 3-fold serial dilution by dispenser (TECAN D300E). After 20 minutes preincubation at room temperature, 0.1 μL MgCl2 (10 mM final) was added to initiate the reaction. Following a 60 minutes incubation at 37° C., the reaction was stopped by addition of 2 μL of quenching buffer consisting of Lance detection buffer (Perkinelmer CR97-100C), 2 nM LANCE Ultra Europium-anti-P-4E-BP1 (Perkinelmer, TRF0216-D), 10 mM EDTA, and incubate at room temperature for additional 60 minutes in dark. The reaction signal was measured by Envision multimode plate reader (PerkinElmer, 2102-0010). IC50 values were determined by fitting the data to the standard 4 parameters with Hill Slope using GraphPad Prism software.

CDK4/Cyclin D1 = CDK4/Cyclin D1 (Homo sapiens (Human), UniProt P11802); test: CDK4/CyclinD1 enzymatic activity assay (TR-FRET); format: biochemical; details: ATP 2 mM, read-out: CDK4_D1 IC50
Procedure: CDK4/CyclinD1 Enzymatic Activity Assay
as §1, with “Bio-One). CDK4/Cyclin” for “Bio-One). CDK6/Cyclin”, “was measured.” for “was measured and used in”, “complex CDK4/Cyclin” for “complex CDK6/Cyclin”, “mixing CDK4/CyclinD1” for “mixing CDK6/Cyclin D1”, “ATP (2 mM” for “ATP (250 μM”, “temperature,” for “temperature, 0.1 μL”

Chain of CDK4/Cyclin D1 (P11802 whole entry): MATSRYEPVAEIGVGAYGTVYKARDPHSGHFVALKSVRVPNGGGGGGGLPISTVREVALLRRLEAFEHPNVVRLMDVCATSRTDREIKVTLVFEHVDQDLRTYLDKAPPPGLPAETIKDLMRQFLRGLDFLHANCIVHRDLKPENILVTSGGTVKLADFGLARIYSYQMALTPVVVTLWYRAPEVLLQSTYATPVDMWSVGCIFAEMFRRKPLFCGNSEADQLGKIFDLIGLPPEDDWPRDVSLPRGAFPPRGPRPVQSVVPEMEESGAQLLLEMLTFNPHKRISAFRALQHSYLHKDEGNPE
Chain of CDK4/Cyclin D1 (P24385 whole entry partner): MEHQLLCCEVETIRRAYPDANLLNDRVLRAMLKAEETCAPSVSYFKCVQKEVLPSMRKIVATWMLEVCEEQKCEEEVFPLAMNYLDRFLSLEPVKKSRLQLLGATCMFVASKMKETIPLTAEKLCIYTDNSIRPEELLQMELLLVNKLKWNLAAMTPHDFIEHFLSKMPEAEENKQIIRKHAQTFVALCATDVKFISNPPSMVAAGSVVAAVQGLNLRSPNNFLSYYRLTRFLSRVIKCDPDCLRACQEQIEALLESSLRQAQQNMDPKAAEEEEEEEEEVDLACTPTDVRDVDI
Chain of CDK6/Cyclin D1 (Q00534 whole entry): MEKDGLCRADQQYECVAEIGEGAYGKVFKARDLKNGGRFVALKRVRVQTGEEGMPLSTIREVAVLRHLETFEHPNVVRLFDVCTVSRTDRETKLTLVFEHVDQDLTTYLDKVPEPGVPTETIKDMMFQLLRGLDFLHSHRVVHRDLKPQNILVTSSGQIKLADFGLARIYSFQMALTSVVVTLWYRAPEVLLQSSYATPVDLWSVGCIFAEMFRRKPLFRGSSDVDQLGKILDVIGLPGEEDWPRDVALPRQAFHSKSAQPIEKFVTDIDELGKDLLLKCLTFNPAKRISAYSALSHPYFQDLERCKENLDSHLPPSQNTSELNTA
Chain of CDK6/Cyclin D1 (P24385 whole entry partner): as the sequence (P24385 whole entry partner) above

Compound: 4-(2,6-Dimethyl-3-propan-2-ylthieno[2,3-d]imidazol-5-yl)-N-[5-(4-ethyl-6,6-difluoro-1,4-diazepan-1-yl)pyridin-2-yl]-5-fluoropyrimidin-2-amine [Example 68]
- IC50 [1]: 20 to 200 nM
- IC50 (CDK6/Cyclin D1): ≤ 20 nM

Compound: Cc1c(-c2nc(Nc3ccc(C4CCCN(C)C4)cn3)ncc2F)sc2c1ncn2C(C)C (single isomer, unassigned) [Example 126, 5-Fluoro-N-[5-[-1-methylpiperidin-3-yl]pyridin-2-yl]-4-(6-methyl-3-propan-2-ylthieno[2,3-d]imidazol-5-yl)pyrimidin-2-amine]
- IC50 (CDK4/Cyclin D1): ≤ 20 nM
- IC50 [1]: 20 to 200 nM
- IC50 (CDK6/Cyclin D1): ≤ 20 nM

Compound: CCN1CCN(c2ccc(Nc3ncc(F)c(-c4cc5nccc(C(C)(C)O)c5s4)n3)nc2)CC1 [Example 17, 2-[2-[2-[[5-(4-Ethylpiperazin-1-yl)pyridin-2-yl]amino]-5-fluoropyrimidin-4-yl]thieno[3,2-b]pyridin-7-yl]propan-2-ol]
- IC50 (CDK4/Cyclin D1): ≤ 20 nM
- IC50 ([1]; Homo sapiens, 240 h): 20 to 200 nM
- IC50 (CDK6/Cyclin D1): 20 to 200 nM

Compound: CN1CCC(c2ccc(Nc3ncc(F)c(-c4cc5c(C6CCCC6)ccnc5s4)n3)nc2)CC1 [Example 43, 4-(4-Cyclopentylthieno[2,3-b]pyridin-2-yl)-5-fluoro-N-(5-(1-methylpiperidin-4-yl)pyridin-2-yl)pyrimidin-2-amine]
- IC50 (CDK4/Cyclin D1): 20 to 200 nM
- IC50 ([1]; Homo sapiens, 240 h): 200 to 2000 nM

Compound: CCN1CCN(c2ccc(Nc3ncc(F)c(-c4cc5c(C6CCCC6)ccnc5s4)n3)nc2)CC1 [Example 44, 4-(4-Cyclopentylthieno[2,3-b]pyridin-2-yl)-N-[5-(4-ethylpiperazin-1-yl)pyridin-2-yl]-5-fluoropyrimidin-2-amine]
- IC50 (CDK4/Cyclin D1): 20 to 200 nM
- IC50 ([1]; Homo sapiens, 240 h): 200 to 2000 nM

Compound: CN1CCN(c2ccc(Nc3ncc(F)c(-c4cc5c(C6CCCC6)ccnc5s4)n3)nc2)CC1 [Example 45, 4-(4-Cyclopentylthieno[2,3-b]pyridin-2-yl)-5-fluoro-N-[5-(4-methylpiperazin-1-yl)pyridin-2-yl]pyrimidin-2-amine]
- IC50 (CDK4/Cyclin D1): 20 to 200 nM
- IC50 ([1]; Homo sapiens, 240 h): 200 to 2000 nM

Compound: Fc1cnc(Nc2ccc(N3CCNCC3)cn2)nc1-c1cc2c(C3CCCC3)ccnc2s1 [Example 46, 4-(4-Cyclopentylthieno[2,3-b]pyridin-2-yl)-5-fluoro-N-(5-piperazin-1-ylpyridin-2-yl)pyrimidin-2-amine]
- IC50 (CDK4/Cyclin D1): 20 to 200 nM
- IC50 ([1]; Homo sapiens, 240 h): 200 to 2000 nM

Compound: CCN1CC2(C1)CN(c1ccc(Nc3ncc(F)c(-c4cc5c(C6CCCC6)ccnc5s4)n3)nc1)C2 [Example 47, 4-(4-Cyclopentylthieno[2,3-b]pyridin-2-yl)-N-[5-(6-ethyl-2,6-diazaspiro[3.3]heptan-2-yl)pyridin-2-yl]-5-fluoropyrimidin-2-amine]
- IC50 (CDK4/Cyclin D1): 20 to 200 nM
- IC50 ([1]; Homo sapiens, 240 h): 200 to 2000 nM

Compound: Cc1c(-c2nc(Nc3ccc(N4CCN(C)CC4)cn3)ncc2F)sc2c(C3CCCC3)nccc12 [Example 48, 4-(7-Cyclopentyl-3-methylthieno[2,3-c]pyridin-2-yl)-5-fluoro-N-(5-(4-methylpiperazin-1-yl)pyridin-2-yl)pyrimidin-2-amine]
- IC50 (CDK4/Cyclin D1): 200 to 2000 nM
- IC50 ([1]; Homo sapiens, 240 h): 200 to 2000 nM

Compound: Cc1c(-c2nc(Nc3ccc(C4CCN(C)CC4)cn3)ncc2F)sc2c(C3CCCC3)ncnc12 [Example 49, 4-(4-Cyclopentyl-7-methylthieno[3,2-d]pyrimidin-6-yl)-5-fluoro-N-(5-(1-methylpiperidin-4-yl)pyridin-2-yl)pyrimidin-2-amine]
- IC50 (CDK4/Cyclin D1): 200 to 2000 nM
- IC50 ([1]; Homo sapiens, 240 h): 200 to 2000 nM

Compound: CCN1CC2(C1)CN(c1ccc(Nc3ncc(F)c(-c4sc5c(C(C)C)nn(C)c(=O)c5c4C)n3)nc1)C2 [Example 63, 2-(2-((5-(6-Ethyl-2,6-diazaspiro[3.3]heptan-2-yl)pyridin-2-yl)amino)-5-fluoropyrimidin-4-yl)-7-isopropyl-3,5-dimethylthieno[2,3-d]pyridazin-4(5H)-one]
- IC50 (CDK4/Cyclin D1): 20 to 200 nM
- IC50 ([1]; Homo sapiens, 240 h): 200 to 2000 nM

Compound: Cc1c(-c2nc(Nc3ccccn3)ncc2F)sc2c1nc(C)n2C(C)C [Example 66, 4-(2,6-Dimethyl-3-propan-2-ylthieno[2,3-d]imidazol-5-yl)-5-fluoro-N-pyridin-2-ylpyrimidin-2-amine]
- IC50 (CDK4/Cyclin D1): 20 to 200 nM
- IC50 (CDK6/Cyclin D1): 20 to 200 nM

Compound: Cc1c(-c2nc(Nc3ccc(N4CCN5CCC4CC5)cn3)ncc2F)sc2c(C(C)C)cn(C)c(=O)c12 [Example 83, 2-(2-((5-(1,4-Diazabicyclo[3,2.2]nonan-4-yl)pyridin-2-yl)amino)-5-fluoropyrimidin-4-yl)-7-isopropyl-3,5-dimethylthieno[3,2-c]pyridin-4(5H)-one]
- IC50 (CDK4/Cyclin D1): ≤ 20 nM
- IC50 ([1]; Homo sapiens, 240 h): 20 to 200 nM

Compound: CC(C)c1cn(C)c(=O)c2cc(-c3ccnc(Nc4ccc(C5CCN(C)CC5)cn4)n3)sc12 [Example 96, 7-Isopropyl-5-methyl-2-(2-((5-(1-methylpiperidin-4-yl)pyridine-2-yl)amino)pyrimidin-4-yl)thieno[3,2-c]pyridin-4(5H)-one]
- IC50 (CDK4/Cyclin D1): 20 to 200 nM
- IC50 ([1]; Homo sapiens, 240 h): 200 to 2000 nM

Compound: Cc1c(-c2nc(Nc3ccc(C4CC[N+](C)([O-])CC4)cn3)ncc2F)sc2c(C(C)C)cn(C)c(=O)c12 (stereo not shown) [Example 98, 4-(6-((5-Fluoro-4-(7-isopropyl-3,5-dimethyl-4-oxo-4,5-dihydrothieno[3,2-c]pyridin-2-yl)pyrimidin-2-yl)amino)pyridin-3-yl)-1-methylpiperidine 1-oxide]
- IC50 (CDK4/Cyclin D1): ≤ 20 nM
- IC50 ([1]; Homo sapiens, 240 h): 20 to 200 nM

Compound: CCN1CCN(Cc2ccc(Nc3ncc(F)c(-c4sc5c(C(C)C)[nH]nc5c4C)n3)nc2)CC1 [Example 100, N-(5-((4-Ethylpiperazin-1-yl)methyl)pyridin-2-yl)-5-fluoro-4-(3-isopropyl-6-methyl-2H-thieno[3,2-c]pyrazol-5-yl)pyrimidin-2-amine]
- IC50 (CDK4/Cyclin D1): 20 to 200 nM
- IC50 ([1]; Homo sapiens, 240 h): 200 to 2000 nM

Compound: CCN1CC2(C1)CN(c1ccc(Nc3ncc(F)c(-c4sc5c(C(C)(C)OC)n(C)nc5c4C)n3)nc1)C2 [Example 105, N-(5-(6-Ethyl-2,6-diazaspiro[3.3]heptan-2-yl)pyridin-2-yl)-5-fluoro-4-(3-(2-methoxypropan-2-yl)-2,6-dimethyl-2H-thieno[3,2-c]pyrazol-5-yl)pyrimidin-2-amine]
- IC50 (CDK4/Cyclin D1): ≤ 20 nM
- IC50 ([1]; Homo sapiens, 240 h): 20 to 200 nM

Compound: CCN1CC2(C1)CN(c1ccc(Nc3ncc(F)c(-c4sc5c(nc(N(C)C)n5C(C)C)c4C)n3)nc1)C2 [Example 111, 5-(2-((5-(6-Ethyl-2,6-diazaspiro[3.3]heptan-2-yl)pyridin-2-yl)amino)-5-fluoropyrimidin-4-yl)-3-isopropyl-N,N,6-trimethyl-3H-thieno[2,3-d]imidazol-2-amine]
- IC50 (CDK4/Cyclin D1): 20 to 200 nM
- IC50 ([1]; Homo sapiens, 240 h): 20 to 200 nM

Compound: Cc1c(-c2nc(Nc3ccc(C4CN(C)CCO4)cn3)ncc2F)sc2c1nc(C)n2C(C)C (stereo not shown) [Example 115, 5-Fluoro-4-(3-isopropyl-2,6-dimethyl-3H-thieno[2,3-d]imidazol-5-yl)-N-(5-(4-methylmorpholin-2-yl)pyridin-2-yl)pyrimidin-2-amine]
- IC50 (CDK4/Cyclin D1): ≤ 20 nM
- IC50 [1]: 20 to 200 nM
